Entries after “also recorded” stand apart in the source; their conditions may differ.
Tests used:
hepatic aggregates = assay: Diffusion of DAPI through ligated constructs after i.p. injection; type: in vivo, mouse; conditions: post i.p. injection, EC Cord Ligated procedure
Method: FIGS. 16A-16B show the diffusion of small-molecule DAPI through ligated constructs. Constructs containing both hepatic aggregates and cords were implanted using procedures identical to those of the “EC Cord Ligated” control. Following implantation, the animals were injected i.p. with DAPI using the same volume and concentration typically used for luciferin administration. […] By 20 min post injection, DAPI-positive hepatic aggregates were identified throughout the constructs as shown by FIG. 16B.
To explore whether this vascularization strategy has potential to enable applications such as human tissue replacement or humanized mouse models, it was tested whether coimplantation of EC cords can support primary human hepatocytes. […] To test whether enhanced hepatic function in animals with EC cords was the result of direct paracrine signaling between adjacent EC cords and hepatocytes or of improved access to a blood supply, the parametrial fat pad was severed upstream of the constructs immediately after implantation to reduce blood supply (“EC Cord Ligated”; FIG. 4E). Bioluminescence imaging was performed 20 min after luciferin injection at each time point, which was confirmed to be adequate time for diffusionbased permeation of the construct in ligated control tissues by DAPI (a small molecule similar in size to luciferin; FIG. 16).

HUVECs and 10T1/2s = assay: Cord formation/contraction of HUVEC and 10T1/2 cells in collagen within PDMS microchannels, with contractility inhibitors; type: cell-based, human, mouse; conditions: treated immediately after seeding; 20 μM blebbistatin or 25 μM Y27632
Method: To test whether patterned endothelial cell (EC) cords induce vivo vessel formation in vivo, EC cords embedded in a fibrin matrix were implanted into the intraperitoneal space of nude mice (schematic, FIG. 1A). The cords were first prepared by seeding HUVECs and 10T1/2 cells suspended within collagen pre-polymer into a PDMS template and allowed to contract and remodel the collagen over a period of 4 hours. During this maturation period, the cells contracted against the matrix and each other, which caused the cords to shrink in diameter to approximately 50% of their original size (FIG. 1B). The HUVECs and 10T1/2 cells were mobile within the cords and also underwent some sorting during this time, with many of the 10T1/2 localizing to the periphery of the cords (FIG. 1C). […] After allowing the cords to contract, they were embedded into a larger fibrin gel (FIG. 1E) and prepared for implantation by attaching the samples to a polypropylene surgical mesh. The cords were implanted adjacent to a fat pad into athymic mice and resected at various time points. Tissues resected after 7 days, sectioned and stained with H&E indicated the presence of blood in areas where EC cords were initially present (FIG. 1F).
Micropatterning of Endothelial cell cords. EC cords were micropatterned as previously described (2). […]

Row | SMILES | time to permeate construct and stain hepatic aggregates (hepatic aggregates) | cord formation / cord contraction under contractility inhibitor (HUVECs and 10T1/2s)
1 | N=C(N)c1ccc(-c2cc3ccc(C(=N)N)cc3[nH]2)cc1 [DAPI] | ≤ 20 min | –
2 | C[C@@H](N)[C@H]1CC[C@H](C(=O)Nc2ccncc2)CC1 [Y27632] | – | failed to form cords
3 | Cc1ccc2c(c1)C(=O)C1(O)CCN(c3ccccc3)C1=N2 (stereo not drawn) [blebbistatin] | – | prevented their contraction and elongation of the cells along the collagen; also recorded: failed to form cords

Source: patent publication US11324858B2, “Biomaterials for enhanced implant-host integration” (Massachusetts Institute of Technology, priority 2012, dated 2022)
